Laboratory results reported in ChEMBL document CHEMBL1201862, “PubChem BioAssay data set” (2004).
Active and inactive are the calls of the source.

Experiments:
[1] = target: Beta-adrenergic receptor kinase 1 (Homo sapiens, UniProt P25098); experiment: aptamer displacement from bead-bound GRK2 – biochemical, cherry pick 1, bead flow cytometry, dose response (AID 504500)
[2] = target: T1, Heat shock factor protein 1 (Mus musculus, UniProt P38532); experiment: HSF1 potentiators in luciferase reporter cells, confirmation, cell-based, NIH3T3, luminescence, dose retest (AID 435004); format: functional;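 note: stress induced by proteasome inhibitor MG132 added 30 min after compound; luciferase reporter driven by HSF1 response element in NIH3T3 cells; actives raise luminescence as potentiators of the MG132 stress response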
T1 sequence (P38532 whole entry): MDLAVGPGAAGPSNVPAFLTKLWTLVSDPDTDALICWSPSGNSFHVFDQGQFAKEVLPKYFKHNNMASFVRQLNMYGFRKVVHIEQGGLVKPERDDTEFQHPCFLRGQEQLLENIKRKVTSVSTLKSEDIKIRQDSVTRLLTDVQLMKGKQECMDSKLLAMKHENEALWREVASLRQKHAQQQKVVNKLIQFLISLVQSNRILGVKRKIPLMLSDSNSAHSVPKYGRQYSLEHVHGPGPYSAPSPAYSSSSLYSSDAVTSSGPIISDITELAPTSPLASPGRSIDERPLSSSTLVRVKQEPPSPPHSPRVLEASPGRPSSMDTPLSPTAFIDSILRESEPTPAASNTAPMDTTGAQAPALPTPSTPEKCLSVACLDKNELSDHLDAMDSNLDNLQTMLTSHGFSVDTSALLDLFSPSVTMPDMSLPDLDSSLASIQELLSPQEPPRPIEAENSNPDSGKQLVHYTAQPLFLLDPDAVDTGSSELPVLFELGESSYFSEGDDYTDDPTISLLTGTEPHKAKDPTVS

[3] = target: Tyrosine-protein phosphatase non-receptor type 11 (Homo sapiens, UniProt Q06124); experiment: SHP2 phosphatase inhibition, dose response, selectivity assay for STEP inhibitor project, biochemical (AID 602367); format: functional; settings: read-out: IC50_Mean
[4] = target: Tyrosine-protein phosphatase non-receptor type 5 (Homo sapiens, UniProt P54829); experiment: STEP phosphatase inhibitors, confirmation, biochemical, fluorescence intensity, uHTS hits (AID 602372); format: functional; settings: read-out: IC50_Mean
[5] = target: Dual specificity protein phosphatase 3 (Homo sapiens, UniProt P51452); experiment: VHR phosphatase inhibition, dose response, selectivity assay for STEP inhibitor project, biochemical (AID 602374); format: functional; settings: read-out: IC50_Mean
[6] = NIH-3T3 fibroblast cytotoxicity, dose response, cytotoxicity control, cell-based, fluorescence, Alamar Blue, secondary assay (AID 2327); format: functional;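 note: NIH-3T3 mouse fibroblasts cultured with fluconazole at 8 µg/mL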
[7] = system: BJ; experiment: cytotoxicity toward BJ-TERT fibroblasts, dose response, cell-based, RAS-independent, luminescence (AID 1933); format: functional; settings: Homo sapiens
[8] = cells; format: functional, cell-based
[9] = system: BJ; experiment: cells; format: functional, cell-based; settings: Homo sapiens
[10] = C. albicans growth with fluconazole, confirmation, fluorescence, retest (AID 2467); format: functional, cell-based
[11] = cells; format: functional, cell-based; remark: listed apart in the source
[12] = target: Serine/threonine-protein phosphatase (Candida dubliniensis (strain CD36 / CBS 7987 / NCPF 3949 / NRRLY-17841) (Yeast), UniProt B9W6M3); experiment: calcineurin pathway inhibitors in yeast reporter, dose response, S. cerevisiae, CDRE-lacZ, luminescence, secondary (AID 2388); format: functional, cell-based;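 note: yeast reporter cells carrying a calcineurin-responsive lacZ construct stimulated with calcium chloride; luminescent beta-galactosidase reporter signal in whole cells rather than isolated phosphatase activity; potency for inhibition where a drop in reporter signal means calcineurin blockade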
[13] = system: BJ; experiment: cytotoxicity toward BJ-TERT-LT-ST fibroblasts, dose response, cell-based, RAS-independent, luminescence (AID 1935); format: functional; settings: Homo sapiens;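 note: BJ fibroblasts immortalized with TERT plus LT and ST oncogenes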
[14] = cytotoxicity toward DRD oncogenic fibroblasts, dose response, cell-based, non-viral oncogenic, luminescence (AID 1934); format: functional; settings: Homo sapiens
[15] = target: Exodeoxyribonuclease V (Escherichia coli (strain K12), UniProt P04993+P07648+P08394); experiment: E. coli RecBCD inhibitors, dose response, counter-screen for AddAB inhibitor project, absorbance, V66 E. coli, mutant T4 phage (AID 492957); format: functional, cell-based, Escherichia coli str. K-12 substr. MG1655
[16] = Counterscreen for AddAB inhibitors: absorbance-based bacterial cell-based high throughput dose response assay for inhibitors of bacterial viability. [Related pubchem assays (depositor defined):AID435030, AID449728, AID449731, AID488942, AID488955, AID488956]; format: functional
[17] = system: HEK293; experiment: inhibitors of LMP1-driven NF-kB reporter, dose response, cell-based, HEK293, luciferase, cherry-pick (AID 588343); format: functional, Homo sapiens; settings: Homo sapiens, HEK293
[18] = target: T2, Latent membrane protein 1 (Human herpesvirus 4 (strain B95-8), UniProt P03230); experiment: TES1-eGFP NF-kB reporter inhibition versus Tet-On dsRED, dose response, selectivity assay for LMP1 NF-kB inhibitor project, imaging, HEK293T, dual-color eGFP/dsRED, cherry-picks (AID 588398); format: functional, cell-based
T2 sequence (P03230 whole entry): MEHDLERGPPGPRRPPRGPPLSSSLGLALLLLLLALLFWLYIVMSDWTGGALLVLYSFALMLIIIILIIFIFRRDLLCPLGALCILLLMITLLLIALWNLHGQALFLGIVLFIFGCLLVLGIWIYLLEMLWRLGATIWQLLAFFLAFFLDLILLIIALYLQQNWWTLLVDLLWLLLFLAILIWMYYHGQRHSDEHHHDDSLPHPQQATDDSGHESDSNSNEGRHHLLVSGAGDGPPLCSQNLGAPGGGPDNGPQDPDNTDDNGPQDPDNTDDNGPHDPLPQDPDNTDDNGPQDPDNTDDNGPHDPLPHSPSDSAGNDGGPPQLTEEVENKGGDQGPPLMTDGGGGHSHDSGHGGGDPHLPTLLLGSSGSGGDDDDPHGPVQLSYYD

[19] = system: INS1; experiment: beta cell apoptosis inhibitors, cytokine rescue, dose response, luminescence, retest (AID 449756); format: functional, cell-based; settings: Rattus norvegicus;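 note: cell death triggered by IL-1 beta plus TNF-alpha plus IFN-gamma mixture; protective hits raise ATP signal compared with cytokine alone wells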
[20] = target: ATP-dependent molecular chaperone HSP82 (Candida albicans (strain WO-1) (Yeast), UniProt C4YTQ8); experiment: loss of DOC-induced GRE-beta-galactosidase reporter signal, dose response, Hsp90 inhibitor project, S. cerevisiae, luminescence (AID 2400); format: functional, cell-based;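 note: beta-galactosidase luminescence from glucocorticoid response element reporter as proxy for Hsp90 function; inhibitor potency where signal loss means Hsp90 inhibition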
[21] = Shn3 3'UTR reporter inhibitors, dose response, cell-based, Clone20 osteoblasts, firefly luciferase, cherry-picked (AID 624132); format: functional;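 note: firefly luciferase luminescence from reporter carrying the Shn3 3'UTR in osteoblasts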
[22] = HepG2 cell cytotoxicity, dose response, cytotoxicity control for Shn3 inhibitor project, CellTiter-Glo, cherry-picked (AID 624134); format: functional, cell-based
[23] = control 3'UTR Renilla luciferase suppression, dose response, counter-screen for Shn3 inhibitor project, cell-based, Clone20-Shn3RL, cherry-picked (AID 624133); format: functional
[24] = target: T3, RNA-binding protein pos-1 (Caenorhabditis elegans, UniProt G5EF15); experiment: inhibitors of POS-1/mex-3 RNA binding, dose response, biochemical, fluorescence polarization (AID 1964);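 note: purified POS-1 fused to maltose binding protein made in E. coli; potency of compounds blocking POS-1 binding to fluorescent RNA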
T3 sequence (G5EF15 whole entry): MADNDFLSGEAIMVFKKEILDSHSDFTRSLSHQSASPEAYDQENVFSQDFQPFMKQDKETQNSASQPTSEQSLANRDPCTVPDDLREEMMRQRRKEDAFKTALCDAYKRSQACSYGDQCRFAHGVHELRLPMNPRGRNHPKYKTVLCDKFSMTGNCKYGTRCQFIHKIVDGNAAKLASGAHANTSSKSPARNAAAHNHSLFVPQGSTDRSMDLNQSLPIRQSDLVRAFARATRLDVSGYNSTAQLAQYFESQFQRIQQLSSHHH

[25] = target: T4, Zinc finger protein mex-5 (Caenorhabditis elegans, UniProt Q9XUB2); experiment: MEX-5/TCR-2 RNA interaction inhibitors, dose response, biochemical, C. elegans, fluorescence polarization (AID 1960)
T4 sequence (Q9XUB2 whole entry): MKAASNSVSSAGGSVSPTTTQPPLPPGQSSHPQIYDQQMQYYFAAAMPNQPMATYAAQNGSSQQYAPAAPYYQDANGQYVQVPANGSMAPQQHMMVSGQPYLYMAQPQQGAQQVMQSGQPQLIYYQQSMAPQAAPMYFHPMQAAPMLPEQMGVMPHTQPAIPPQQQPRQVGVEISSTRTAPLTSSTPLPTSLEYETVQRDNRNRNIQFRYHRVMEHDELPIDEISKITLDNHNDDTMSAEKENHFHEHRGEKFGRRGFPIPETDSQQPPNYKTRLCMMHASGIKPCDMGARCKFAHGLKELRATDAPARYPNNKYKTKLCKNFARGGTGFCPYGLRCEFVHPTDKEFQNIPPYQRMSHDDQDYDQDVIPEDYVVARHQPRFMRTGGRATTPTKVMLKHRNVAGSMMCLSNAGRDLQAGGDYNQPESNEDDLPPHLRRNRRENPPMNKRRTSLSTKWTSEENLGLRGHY

[26] = target: T5, Endoribonuclease toxin MazF (Escherichia coli K-12, UniProt P0AE70); experiment: MazF toxin RNase activators, dose response, biochemical, fluorescence, single-stranded RNA substrate, uHTS hits (AID 588481); format: functional
[27] = target: T5, Endoribonuclease toxin MazF; experiment: fluorescent RNA oligo signal without MazF, dose response, counter-screen for MazEF activator project, biochemical, fluorescence, single-stranded RNase substrate (AID 588502); format: functional
[28] = system: Candida albicans; experiment: growth inhibition of resistant C. albicans, dose response, CaCi-8 strain, fluconazole, dry powder, set 4 (AID 488950); format: functional, organism-based
[29] = system: Candida albicans; experiment: fluconazole resistance reversal in C. albicans, dose response, CaCi-2 strain, Alamar Blue, dry powder, set 4 (AID 488943); format: functional, organism-based
[30] = system: Candida albicans; experiment: growth inhibition of azole-resistant C. albicans, dose response, CaCi-8 strain, Alamar Blue, dry powder, set 2 (AID 488909); format: functional, organism-based
[31] = target: Hexokinase-1 (Homo sapiens, UniProt P19367); experiment: SAR analysis of small molecule inhibitors of hexokinase domain containing I (HKDC1) in the hexokinase 1 selectivity assay. [Related pubchem assays (depositor defined):AID493160, AID493190]; format: functional
[32] = target: T6, Hexokinase HKDC1 (Homo sapiens, UniProt Q2TB90); experiment: SAR analysis of small molecule inhibitors of hexokinase domain containing I (HKDC1). [Related pubchem assays (depositor defined):AID493160, AID493190]; format: functional
T6 sequence (Q2TB90 whole entry): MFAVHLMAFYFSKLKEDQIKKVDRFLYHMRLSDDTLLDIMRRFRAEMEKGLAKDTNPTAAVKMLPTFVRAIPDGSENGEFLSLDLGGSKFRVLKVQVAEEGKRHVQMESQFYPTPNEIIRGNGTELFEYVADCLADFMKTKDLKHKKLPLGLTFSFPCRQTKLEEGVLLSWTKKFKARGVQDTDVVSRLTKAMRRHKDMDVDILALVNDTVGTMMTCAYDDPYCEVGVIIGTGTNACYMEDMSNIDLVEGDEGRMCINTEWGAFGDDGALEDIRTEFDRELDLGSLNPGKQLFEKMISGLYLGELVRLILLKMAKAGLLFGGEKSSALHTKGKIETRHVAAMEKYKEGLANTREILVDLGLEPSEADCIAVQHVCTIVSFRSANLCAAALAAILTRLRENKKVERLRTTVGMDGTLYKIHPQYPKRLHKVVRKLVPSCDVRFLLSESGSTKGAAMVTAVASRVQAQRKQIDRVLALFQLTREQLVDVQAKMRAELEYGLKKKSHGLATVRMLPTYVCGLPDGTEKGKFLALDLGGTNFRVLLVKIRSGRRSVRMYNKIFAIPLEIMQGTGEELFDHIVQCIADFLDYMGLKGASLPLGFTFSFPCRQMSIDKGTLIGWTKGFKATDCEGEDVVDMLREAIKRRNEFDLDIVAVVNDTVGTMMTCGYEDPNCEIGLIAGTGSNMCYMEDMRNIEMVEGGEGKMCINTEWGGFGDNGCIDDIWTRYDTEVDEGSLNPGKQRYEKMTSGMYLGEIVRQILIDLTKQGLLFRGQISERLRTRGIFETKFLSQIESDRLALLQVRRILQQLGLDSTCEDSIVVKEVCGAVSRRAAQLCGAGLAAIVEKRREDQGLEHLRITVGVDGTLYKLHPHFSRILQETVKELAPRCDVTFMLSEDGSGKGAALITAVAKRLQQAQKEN

T5 sequence (P0AE70 whole entry): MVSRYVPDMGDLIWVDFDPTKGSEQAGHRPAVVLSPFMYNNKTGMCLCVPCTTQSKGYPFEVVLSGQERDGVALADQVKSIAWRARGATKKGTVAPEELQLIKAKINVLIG
Dual specificity protein phosphatase 3, sequence (P51452 whole entry): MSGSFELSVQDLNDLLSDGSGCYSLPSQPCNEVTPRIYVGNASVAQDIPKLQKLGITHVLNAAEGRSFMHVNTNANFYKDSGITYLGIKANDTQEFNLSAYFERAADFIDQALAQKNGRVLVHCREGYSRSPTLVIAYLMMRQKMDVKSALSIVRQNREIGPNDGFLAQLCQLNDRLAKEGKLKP
Exodeoxyribonuclease V, sequence (P04993 whole entry): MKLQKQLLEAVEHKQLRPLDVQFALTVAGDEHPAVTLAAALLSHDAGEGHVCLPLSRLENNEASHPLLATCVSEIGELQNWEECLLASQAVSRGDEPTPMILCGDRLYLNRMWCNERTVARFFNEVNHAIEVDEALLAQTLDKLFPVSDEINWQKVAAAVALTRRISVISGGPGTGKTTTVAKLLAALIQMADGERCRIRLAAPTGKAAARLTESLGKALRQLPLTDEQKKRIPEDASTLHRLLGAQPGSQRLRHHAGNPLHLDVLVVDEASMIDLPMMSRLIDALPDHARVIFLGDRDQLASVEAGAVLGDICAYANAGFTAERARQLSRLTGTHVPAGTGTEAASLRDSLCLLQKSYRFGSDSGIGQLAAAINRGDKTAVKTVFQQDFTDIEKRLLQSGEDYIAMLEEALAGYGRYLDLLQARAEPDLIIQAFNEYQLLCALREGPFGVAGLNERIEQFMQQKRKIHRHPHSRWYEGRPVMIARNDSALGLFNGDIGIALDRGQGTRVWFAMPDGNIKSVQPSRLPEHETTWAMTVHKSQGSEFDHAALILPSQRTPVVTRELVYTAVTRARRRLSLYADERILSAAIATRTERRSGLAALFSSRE
Exodeoxyribonuclease V, sequence (P07648 whole entry): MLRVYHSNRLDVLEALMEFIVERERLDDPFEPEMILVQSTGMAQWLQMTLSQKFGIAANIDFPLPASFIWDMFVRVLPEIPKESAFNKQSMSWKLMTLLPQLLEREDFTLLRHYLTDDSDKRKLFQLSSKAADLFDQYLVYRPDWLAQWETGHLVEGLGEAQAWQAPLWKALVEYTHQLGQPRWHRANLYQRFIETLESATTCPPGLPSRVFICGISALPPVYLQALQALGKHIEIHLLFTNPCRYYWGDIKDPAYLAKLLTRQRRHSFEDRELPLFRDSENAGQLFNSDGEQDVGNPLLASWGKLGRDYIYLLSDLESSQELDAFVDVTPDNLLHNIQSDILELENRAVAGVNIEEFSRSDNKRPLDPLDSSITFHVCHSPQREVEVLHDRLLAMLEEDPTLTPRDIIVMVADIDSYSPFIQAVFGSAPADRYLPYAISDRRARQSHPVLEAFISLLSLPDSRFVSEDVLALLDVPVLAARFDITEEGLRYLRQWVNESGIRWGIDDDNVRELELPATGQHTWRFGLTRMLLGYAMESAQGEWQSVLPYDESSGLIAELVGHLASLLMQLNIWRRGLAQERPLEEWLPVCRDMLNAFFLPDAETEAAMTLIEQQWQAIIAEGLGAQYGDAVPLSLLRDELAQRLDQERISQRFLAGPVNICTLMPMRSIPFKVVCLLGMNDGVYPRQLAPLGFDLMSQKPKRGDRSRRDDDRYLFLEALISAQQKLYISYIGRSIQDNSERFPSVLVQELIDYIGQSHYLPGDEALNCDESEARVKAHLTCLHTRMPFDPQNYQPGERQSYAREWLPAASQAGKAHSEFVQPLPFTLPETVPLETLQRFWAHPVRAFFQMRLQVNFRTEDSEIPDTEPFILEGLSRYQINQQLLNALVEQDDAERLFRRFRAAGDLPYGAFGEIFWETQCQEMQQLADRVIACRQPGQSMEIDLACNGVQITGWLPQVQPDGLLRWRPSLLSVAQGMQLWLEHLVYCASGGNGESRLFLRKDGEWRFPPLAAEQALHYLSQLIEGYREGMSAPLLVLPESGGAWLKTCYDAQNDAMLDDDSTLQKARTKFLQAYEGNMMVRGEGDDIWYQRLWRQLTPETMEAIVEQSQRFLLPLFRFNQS
Exodeoxyribonuclease V, sequence (P08394 whole entry): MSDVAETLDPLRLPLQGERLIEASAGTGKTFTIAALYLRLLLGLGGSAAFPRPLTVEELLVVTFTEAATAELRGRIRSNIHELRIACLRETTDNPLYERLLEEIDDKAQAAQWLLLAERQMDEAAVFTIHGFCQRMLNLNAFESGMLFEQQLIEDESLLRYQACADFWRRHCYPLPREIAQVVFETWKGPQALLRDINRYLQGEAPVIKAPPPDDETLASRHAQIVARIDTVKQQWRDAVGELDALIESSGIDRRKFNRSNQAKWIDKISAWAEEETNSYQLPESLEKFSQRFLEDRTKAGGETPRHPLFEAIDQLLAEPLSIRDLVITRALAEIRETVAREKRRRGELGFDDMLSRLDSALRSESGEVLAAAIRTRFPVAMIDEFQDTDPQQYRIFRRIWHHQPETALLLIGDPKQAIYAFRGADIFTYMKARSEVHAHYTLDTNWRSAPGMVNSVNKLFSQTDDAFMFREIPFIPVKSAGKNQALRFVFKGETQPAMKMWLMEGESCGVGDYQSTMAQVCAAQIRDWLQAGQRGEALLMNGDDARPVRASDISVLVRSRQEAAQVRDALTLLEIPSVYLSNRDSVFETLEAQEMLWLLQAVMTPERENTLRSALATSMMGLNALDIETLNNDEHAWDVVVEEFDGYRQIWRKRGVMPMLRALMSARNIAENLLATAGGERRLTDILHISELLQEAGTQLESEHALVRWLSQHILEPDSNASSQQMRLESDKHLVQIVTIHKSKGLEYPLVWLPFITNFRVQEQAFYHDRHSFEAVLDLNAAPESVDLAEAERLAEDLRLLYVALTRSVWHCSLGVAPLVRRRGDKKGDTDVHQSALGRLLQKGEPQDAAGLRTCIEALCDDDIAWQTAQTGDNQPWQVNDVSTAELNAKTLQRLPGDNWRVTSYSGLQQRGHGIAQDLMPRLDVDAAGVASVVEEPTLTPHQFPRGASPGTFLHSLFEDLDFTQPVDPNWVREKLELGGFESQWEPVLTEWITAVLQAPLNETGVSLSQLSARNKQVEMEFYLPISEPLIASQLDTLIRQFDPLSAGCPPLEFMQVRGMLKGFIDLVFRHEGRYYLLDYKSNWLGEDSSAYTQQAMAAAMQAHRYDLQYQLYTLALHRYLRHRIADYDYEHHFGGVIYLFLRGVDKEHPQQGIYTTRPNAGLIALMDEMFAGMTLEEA
Hexokinase-1, sequence (P19367 whole entry, the tested form may be a part): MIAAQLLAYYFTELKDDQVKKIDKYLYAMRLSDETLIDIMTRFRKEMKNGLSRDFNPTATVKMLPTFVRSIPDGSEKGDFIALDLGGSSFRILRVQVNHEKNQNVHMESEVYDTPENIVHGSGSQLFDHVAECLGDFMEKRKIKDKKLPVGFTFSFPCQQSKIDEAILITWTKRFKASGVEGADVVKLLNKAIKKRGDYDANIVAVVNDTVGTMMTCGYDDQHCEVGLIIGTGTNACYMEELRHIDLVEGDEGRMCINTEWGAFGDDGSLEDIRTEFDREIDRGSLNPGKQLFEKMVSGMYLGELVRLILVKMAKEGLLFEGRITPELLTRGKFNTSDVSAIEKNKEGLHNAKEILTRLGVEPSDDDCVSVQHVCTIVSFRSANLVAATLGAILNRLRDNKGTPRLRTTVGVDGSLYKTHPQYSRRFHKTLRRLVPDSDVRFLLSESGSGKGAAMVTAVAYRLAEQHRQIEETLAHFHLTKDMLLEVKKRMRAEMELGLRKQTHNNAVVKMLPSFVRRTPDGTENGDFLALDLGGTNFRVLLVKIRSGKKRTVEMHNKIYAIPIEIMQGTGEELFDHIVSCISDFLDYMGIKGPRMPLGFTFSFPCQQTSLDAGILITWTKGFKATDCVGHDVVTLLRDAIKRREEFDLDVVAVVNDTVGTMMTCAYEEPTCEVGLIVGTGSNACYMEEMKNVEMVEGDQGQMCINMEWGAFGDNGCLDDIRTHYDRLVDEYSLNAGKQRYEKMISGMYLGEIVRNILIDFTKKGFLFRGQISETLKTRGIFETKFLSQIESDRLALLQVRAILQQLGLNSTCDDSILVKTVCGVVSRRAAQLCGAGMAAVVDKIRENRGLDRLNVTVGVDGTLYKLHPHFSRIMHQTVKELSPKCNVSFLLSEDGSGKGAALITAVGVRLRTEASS
Serine/threonine-protein phosphatase, sequence (B9W6M3 whole entry): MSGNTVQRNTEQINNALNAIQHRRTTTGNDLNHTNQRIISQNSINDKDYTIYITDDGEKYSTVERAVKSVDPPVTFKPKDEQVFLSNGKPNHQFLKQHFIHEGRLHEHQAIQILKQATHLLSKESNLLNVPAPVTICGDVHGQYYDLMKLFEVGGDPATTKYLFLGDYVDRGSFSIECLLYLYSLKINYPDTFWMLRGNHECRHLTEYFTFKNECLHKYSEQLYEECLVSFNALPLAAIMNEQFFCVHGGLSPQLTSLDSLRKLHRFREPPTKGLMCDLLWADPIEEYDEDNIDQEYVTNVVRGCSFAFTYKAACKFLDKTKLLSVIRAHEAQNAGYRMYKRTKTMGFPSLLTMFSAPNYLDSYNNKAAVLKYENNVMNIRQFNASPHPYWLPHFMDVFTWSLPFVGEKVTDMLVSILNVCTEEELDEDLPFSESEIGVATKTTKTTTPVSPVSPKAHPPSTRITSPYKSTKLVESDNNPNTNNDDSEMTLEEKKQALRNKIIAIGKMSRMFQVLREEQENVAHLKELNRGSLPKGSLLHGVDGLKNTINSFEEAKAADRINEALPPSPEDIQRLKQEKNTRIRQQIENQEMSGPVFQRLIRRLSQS

CCOC(=O)CC(NS(=O)(=O)c1ccc2ncc(C(=O)O)c(O)c2c1)c1ccc(OCC)c(OC)c1 (configuration not stated)
EC50 [1]: 3.62 µM (active)
EC50 [2]: > 260 µM (inactive)
IC50 [3]: 1.53 µM (active)
IC50 [4]: 46.3 µM (inactive)
IC50 [5]: 3 µM (active)

Oc1cccc(C(Nc2nccs2)c2ccc3cccnc3c2O)c1 (configuration not stated)
EC50 [6]: 20.1 µM (inconclusive)
EC50 [7]: 9.83 µM (active)
EC50 [8]: 13.2 µM (active)
EC50 [9]: 8.06 µM (active)
EC50 [10]: 0.796 µM (active)
EC50 [11]: > 350 µM (not active)
EC50 [12]: > 180 µM (inactive)
EC50 [13]: 6.31 µM (active)
EC50 [14]: 6.12 µM (active)
IC50 [15]: > 119 µM (inactive)
IC50 [16]: 107 µM (inactive)
AC50 [17]: 14 µM (active)
AC50 [18]: 8.97 µM (active)
AC50 [19]: 0.95 µM (active)
EC50 [20]: > 160 µM (inactive)
AC50 [21]: 1.67 µM (active)
AC50 [22]: 5.04 µM (active)
AC50 [23]: 1.87 µM (active)

CC(=O)N1CCN(c2ccc(N/C=C3\C(=O)NC(=O)N(Cc4ccccc4)C3=O)cc2)CC1
EC50 [24]: > 300 µM (not active)
EC50 [25]: 83.1 µM (active)
EC50 [26]: > 99 µM (inactive)
EC50 [27]: 19 µM (active)

O=C(c1ccccc1Cl)N1CCN(c2ccnc3cc(Cl)ccc23)CC1
AC50 [28]: 7.36 µM (active)
AC50 [29]: 4.8 µM (active)
AC50 [30]: 25.2 µM (active)

O=C(CSc1ncccn1)Nc1cccc(S(=O)(=O)N2CCOCC2)c1
IC50 [31]: > 80 µM (inactive)
IC50 [32]: > 80 µM (inactive)
